According to patent publication US7829573B2, “Therapeutic combinations of antihypertensive and antiangiogenics agents” (AstraZeneca AB, priority 2000, dated 2010):
Like-named read-outs stand apart in the source and are kept apart here.

How the values were obtained:
[1] = Measurement of blood pressure in conscious rats by radio telemetry; assay type: in vivo, rat
Method: Blood pressure was measured using the Data Sciences radio-telemetry equipment (Data Sciences International, Saint Paul, Minn., USA). This provides a means of measuring the blood pressure (BP), heart rate and activity of a conscious unrestrained rat remotely. The measurements obtained using this system are free from the stresses induced by surgery and restraint. The system comprises a pressure transducer (TA11PA-C40) (the ‘implant’) implanted in the abdomen of a rat which transmits a radio signal indicating the pressure in the aorta of the animal. The signal is detected by a receiver RA1010) placed under the plastic cage which houses the animal.
Rats were anaesthetised with “Fluothane™” inhalation anaesthetic. The abdomen of the rat was shaved and the skin coated with a topical disinfectant. […]
Blood pressure data was recorded from each animal every 10 minutes throughout the study. […] This average day time blood pressure measurement for each rat was calculated over a 4 day period immediately prior to the commencement of compound dosing.
For the next 4 days (i.e. days 11 to 14 of compound dosing) the rats were dosed with the ACE inhibitor captopril at 30 mg/kg p.o. once daily in addition to the quinazoline compound. The average blood pressure of each rat was calculated daily and the difference between the daily calculated pressure and the starting pressure was expressed.

[2] = conscious rats, VEGF 250 μg/kg; cited from earlier work
[3] = tested on: coronary arteries; details: dog, in vitro; cited from earlier work
[4] = anaesthetised rats, 15 μg/kg bFGF; cited from earlier work

## COc1cc2c(Nc3ccc(Br)cc3F)ncnc2cc1OCC1CCN(C)CC1 [4-(4-bromo-2-fluoroanilino)-6-methoxy-7-(1-methylpiperidin-4-ylmethoxy)quinazoline]
[1]; conscious male wistar rats, 12.5 mg/kg p.o. once daily for 10 days, 3 dosed rats and a control rat (FIG. 1)
  effect on the diastolic blood pressure in rats: increase in blood pressure

## C[C@H](CS)C(=O)N1CCC[C@H]1C(=O)O [captopril, reference compound]
[1]; captopril 30 mg/kg p.o. once daily on days 11 to 14 in addition to the quinazoline compound 12.5 mg/kg p.o.
  effect of addition of ACE inhibitor on the increase in blood pressure caused by the VEGF receptor tyrosine kinase inhibitor: reversed

## VEGF
[2]
  time to return to normal blood pressure: ≤ 20 min
[3]
  effect on coronary arteries: dilate coronary arteries

## bFGF: basic fibroblast growth factor, polypeptide with endothelial cell growth promoting activity
[4]
  time to return to normal blood pressure: ≤ 30 min
